Measurements from ChEMBL document CHEMBL2029226, “Molecular Insights into Human Monoamine Oxidase B Inhibition by the Glitazone Anti-Diabetes Drugs” (ACS Med Chem Lett, 2012).
Calls of active or inactive are those of the source. The rule behind the calls is not given here.

How the values were obtained:
[1] = target: T1, Amine oxidase [flavin-containing] A (Rattus norvegicus, UniProt P21396); assay: Inhibition of rat MAOA expressed in Pichia pastoris at 100 uM
T1 sequence (P21396 whole entry): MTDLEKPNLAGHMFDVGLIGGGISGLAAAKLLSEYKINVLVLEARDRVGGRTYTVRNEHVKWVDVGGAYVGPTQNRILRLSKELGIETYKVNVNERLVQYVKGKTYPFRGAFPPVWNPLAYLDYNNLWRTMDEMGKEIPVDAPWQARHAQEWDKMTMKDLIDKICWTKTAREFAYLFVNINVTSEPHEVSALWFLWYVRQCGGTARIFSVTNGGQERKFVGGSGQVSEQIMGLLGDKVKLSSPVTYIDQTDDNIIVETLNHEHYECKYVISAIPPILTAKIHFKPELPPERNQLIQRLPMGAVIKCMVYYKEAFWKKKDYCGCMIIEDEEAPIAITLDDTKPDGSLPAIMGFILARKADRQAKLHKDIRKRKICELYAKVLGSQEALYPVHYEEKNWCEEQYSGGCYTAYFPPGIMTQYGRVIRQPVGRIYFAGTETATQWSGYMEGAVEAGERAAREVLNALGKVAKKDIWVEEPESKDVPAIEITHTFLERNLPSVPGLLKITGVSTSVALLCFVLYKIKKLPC

[2] = target: Lysine-specific histone demethylase 1A (Homo sapiens) (UniProt O60341); assay: Inhibition of human histone demethylase LSD1 up to 100 uM
[3] = target: T2, Amine oxidase [flavin-containing] A (Homo sapiens, UniProt P21397); assay: Inhibition of human MAOA expressed in Pichia pastoris at 100 uM
T2 sequence (P21397 whole entry): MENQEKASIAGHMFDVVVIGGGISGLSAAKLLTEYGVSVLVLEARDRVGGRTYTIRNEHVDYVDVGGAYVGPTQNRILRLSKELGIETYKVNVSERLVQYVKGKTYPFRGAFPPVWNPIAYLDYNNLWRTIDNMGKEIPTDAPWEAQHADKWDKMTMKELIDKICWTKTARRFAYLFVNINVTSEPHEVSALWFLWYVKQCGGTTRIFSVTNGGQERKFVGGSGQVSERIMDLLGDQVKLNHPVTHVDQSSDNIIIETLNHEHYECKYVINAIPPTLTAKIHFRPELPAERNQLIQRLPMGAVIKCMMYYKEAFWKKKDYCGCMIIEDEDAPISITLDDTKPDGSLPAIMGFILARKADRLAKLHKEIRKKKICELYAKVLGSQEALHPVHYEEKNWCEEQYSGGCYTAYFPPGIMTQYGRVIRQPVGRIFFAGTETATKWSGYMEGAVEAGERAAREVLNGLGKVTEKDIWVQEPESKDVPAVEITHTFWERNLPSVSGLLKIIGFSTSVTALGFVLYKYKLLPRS

[4] = target: T3, Amine oxidase [flavin-containing] B (Rattus norvegicus, UniProt P19643); assay: Competitive inhibition of rat MAOB expressed in Pichia pastoris
T3 sequence (P19643 whole entry): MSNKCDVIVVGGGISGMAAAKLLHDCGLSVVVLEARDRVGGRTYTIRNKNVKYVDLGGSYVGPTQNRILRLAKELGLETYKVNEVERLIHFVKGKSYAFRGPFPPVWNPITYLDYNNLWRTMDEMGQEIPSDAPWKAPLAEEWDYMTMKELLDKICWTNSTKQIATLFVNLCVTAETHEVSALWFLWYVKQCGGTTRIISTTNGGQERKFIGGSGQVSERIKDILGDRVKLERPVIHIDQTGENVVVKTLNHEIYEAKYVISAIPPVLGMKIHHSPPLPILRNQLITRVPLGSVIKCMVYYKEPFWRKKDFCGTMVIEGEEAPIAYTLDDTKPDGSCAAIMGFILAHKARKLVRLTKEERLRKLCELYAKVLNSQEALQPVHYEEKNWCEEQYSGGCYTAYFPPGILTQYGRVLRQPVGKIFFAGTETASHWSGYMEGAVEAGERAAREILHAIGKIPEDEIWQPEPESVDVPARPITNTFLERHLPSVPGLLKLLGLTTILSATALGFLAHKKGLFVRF

[5] = target: T2, Amine oxidase [flavin-containing] A; assay: Competitive inhibition of human MAOA expressed in Pichia pastoris
[6] = target: T1, Amine oxidase [flavin-containing] A; assay: Competitive inhibition of rat MAOA expressed in Pichia pastoris
[7] = target: T4, Amine oxidase [flavin-containing] B (Homo sapiens, UniProt P27338); assay: Competitive inhibition of human MAOB expressed in Pichia pastoris
T4 sequence (P27338 whole entry): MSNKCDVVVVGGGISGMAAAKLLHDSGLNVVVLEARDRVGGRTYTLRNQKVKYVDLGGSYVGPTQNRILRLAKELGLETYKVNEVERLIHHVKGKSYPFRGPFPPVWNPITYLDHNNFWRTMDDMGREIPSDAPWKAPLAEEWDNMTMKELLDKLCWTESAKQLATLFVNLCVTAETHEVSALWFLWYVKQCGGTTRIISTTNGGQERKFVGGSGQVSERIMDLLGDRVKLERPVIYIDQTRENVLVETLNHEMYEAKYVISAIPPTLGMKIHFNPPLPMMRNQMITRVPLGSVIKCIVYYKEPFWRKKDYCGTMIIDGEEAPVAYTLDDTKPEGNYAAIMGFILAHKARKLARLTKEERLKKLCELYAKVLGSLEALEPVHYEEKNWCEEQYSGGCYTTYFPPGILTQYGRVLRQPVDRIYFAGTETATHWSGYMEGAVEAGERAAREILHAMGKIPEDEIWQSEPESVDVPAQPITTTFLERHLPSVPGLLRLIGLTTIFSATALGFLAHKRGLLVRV

[8] = target: T3, Amine oxidase [flavin-containing] B; assay: Uncompetitive inhibition of rat MAOB expressed in Pichia pastoris
[9] = target: T4, Amine oxidase [flavin-containing] B; assay: Uncompetitive inhibition of human MAOB expressed in Pichia pastoris
[10] = target: T1, Amine oxidase [flavin-containing] A; assay: Uncompetitive inhibition of rat MAOA expressed in Pichia pastoris
[11] = target: T2, Amine oxidase [flavin-containing] A; assay: Uncompetitive inhibition of human MAOA expressed in Pichia pastoris

| inhibition (INH) [1] | inhibition [2] | inhibition (INH) [3] | Ki [4] | Ki [5] | Ki [6] | Ki [7] | Ki [8] | Ki [9] | Ki [10] | Ki [11] | SMILES |
| --- | --- | --- | --- | --- | --- | --- | --- | --- | --- | --- | --- |
| Not Active | inactive | Not Active | 2.1 µM |  |  |  |  |  |  |  | CCc1ccc(CCOc2ccc(CC3SC(=O)NC3=O)cc2)nc1 (racemic) [PIOGLITAZONE] |
|  | inactive |  | 5.8 µM | 27.6 µM | 32.6 µM | 4.2 µM |  |  |  |  | CN(CCOc1ccc(CC2SC(=O)NC2=O)cc1)c1ccccn1 (racemic) [ROSIGLITAZONE] |
|  | inactive |  |  |  |  |  | 10.9 µM | 9.5 µM | 4.8 µM | 10.5 µM | Cc1c(C)c2c(c(C)c1O)CCC(C)(COc1ccc(CC3SC(=O)NC3=O)cc1)O2 (centres undefined) [TROGLITAZONE] |
